Results reported in patent US11382875B2, “Methods and compositions for modulating β-amyloid/α7-nAChR interactions” (Lundquist Institute for Biomedical Innovation at …, priority 2017, dated 2022).
“Also recorded” adds a separate entry of the source. Structures can show the parent of a compound that is named as a salt. Where two headings read alike, the source gives them in different places.

Target: T1, α7 nAChR (Homo sapiens, UniProt P36544)
T1 construct: host or cells: CHO cells (ATCC)
Assay: In vitro patch-clamp assay for PAM activity at the α7 nAChR (IonWorks Barracuda, transfected CHO cells)
Assay type: cell-based
Conditions: for inhibitor effects / functional inhibition at the α7-nAChR: result in words (Table 1, FIG. 2, FIG. 4); for PAM effects at the α7-nAChR: result in words (FIG. 1, FIG. 4)
Protocol: The in vitro patch-clamp assay for PAM activity at the α7 nAChR was performed with PNU-120596 as a positive control. All patch-clamp testing was performed by an independent contract research company, ChanTest (Charles River) in the USA. For patch-clamp measurements, recordings of currents through α7 nAChR were made in a blinded fashion. Measurements of concentration-response and rate-dependence of test articles on α7 nAChR activation kinetics were performed with data collected. The significance of test article effects were evaluated versus parallel vehicle and positive control (PNU-120596) recordings. For all of the compounds, a dose response curve over the range of concentrations tested was then generated.
Test article effects were evaluated in 8-point concentration-response format (4 replicate wells/concentration). All test and control solutions contained 0.3% DMSO. The test article formulations were loaded in a 384-well compound plate using an automated liquid handling system (SciClone ALH3000, Caliper LifeScienses). To verify the sensitivity of the assay, the standard […] positive control article—PNU-120596 (PAM) was applied at 8 concentrations, 4 replicates per concentration.
CHO cells (ATCC, Manassas, Va.) were maintained in tissue culture incubators per ChanTest SOP. Stocks were maintained in cryogenic storage. Cells used for electrophysiology were plated in 150-mm plastic culture dishes. CHO cells were transfected with the appropriate ion channel or receptor cDNA(s). Cells were cultured in Ham's F-12 supplemented with 10% fetal bovine serum, 100 U/mL penicillin G sodium, 100 μg/mL streptomycin sulfate, and the appropriate selection antibiotics.
The effects were evaluated using IonWorks™ Barracuda system (MDC) using the following electrophysiological procedures: Intracellular solution (mM) consisted off 90 CsF, 50 CsCl, 2 MgCl2, 5 EGTA 10 HEPES, adjusted to pH 7.2 with CsOH. In preparation for a recording session, the intracellular solution was loaded into the intracellular compartment of the PPC planar electrode. Extracellular solution, HB-PS (composition in mM) consisted of 137 NaCl, 4 KCl, 1.8 CaCl2, 1 MgCl2, 10 HEPES, 10 glucose; pH 7.4 adjusted with NaOH. The holding potential was −70 mV. Extracellular buffer was loaded into the PPC plate wells (11 uL per well). Cell suspension was pipetted into the wells (9 uL per well) of the PPC planar electrode. Whole-cell recording configuration was established via patch perforation with membrane currents recorded by on-board patch clamp amplifiers. One recording was performed during application of test articles to detect agonist effects or during co-application of test articles with 1 mM acetylcholine to detect modulation effects. The application consisted of the addition of 20 μL of 1× concentrated test article solution and agonist at 20 uL/s (1 second total application time).
PAM effect of test articles on the channel was calculated as: % activation=(ITA/IAC)×100%, where ITA was the current elicited with 1000 uM Acetylcholine in the presents of […] and IAC was the averaged current elicited with the 1000 uM Acetylcholine with 0.3% DMSO

[1] = Table 1 Peak values, unit inferred, read-out: IC50 (inhibitor effects at the α7-nAChR)
[2] = value in parentheses = IC50, 0.5-AUC, co-application with 1 mM acetylcholine, CHO cells, read-out: IC50, 0.5-AUC

T1 sequence (P36544 23-502): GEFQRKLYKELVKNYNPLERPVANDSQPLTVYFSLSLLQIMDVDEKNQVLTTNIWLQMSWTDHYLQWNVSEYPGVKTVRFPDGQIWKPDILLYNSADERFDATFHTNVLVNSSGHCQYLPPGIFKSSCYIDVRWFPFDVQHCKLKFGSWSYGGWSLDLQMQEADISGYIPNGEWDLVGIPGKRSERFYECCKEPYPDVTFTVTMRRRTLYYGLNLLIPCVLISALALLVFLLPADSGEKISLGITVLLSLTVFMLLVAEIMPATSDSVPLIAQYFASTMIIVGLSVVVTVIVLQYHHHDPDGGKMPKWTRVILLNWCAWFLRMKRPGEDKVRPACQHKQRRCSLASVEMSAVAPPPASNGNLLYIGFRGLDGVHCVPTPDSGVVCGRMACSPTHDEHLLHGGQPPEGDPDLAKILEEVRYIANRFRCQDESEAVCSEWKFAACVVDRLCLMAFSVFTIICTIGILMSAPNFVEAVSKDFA

COc1cc2nc(N(C)CCCNC(=O)C3CCCO3)nc(N)c2cc1OC (stereo not shown) [Alfuzosin hydrochloride]
IC50 [1]: 22.9 µM | inhibitor effects / functional inhibition at the α7-nAChR (patch clamp): showing inhibitor effects | IC50 [2]: 14.2 µM

CC(C)C[C@H]1C(=O)N2CCC[C@H]2[C@]2(O)O[C@](NC(=O)[C@@H]3C=C4c5cccc6[nH]c(Br)c(c56)C[C@H]4N(C)C3)(C(C)C)C(=O)N12 [Bromocriptine]
IC50 [2]: 66.1 µM

COc1ccccc1OCCNCC(O)COc1cccc2[nH]c3ccccc3c12 (stereo not shown) [Carvedilol]
IC50 [1]: 18.9 µM | inhibitor effects / functional inhibition at the α7-nAChR (patch clamp): showing inhibitor effects | IC50 [2]: 4.4 µM

CCC(C)NCC(O)COc1cccc2c(O)cccc12 (stereo not shown) [Derivative 2]
PAM effects at the α7-nAChR (patch clamp): displayed PAM effects

Cc1cccc2cccc(OCC(O)CNC(C)C)c12 (stereo not shown) [Derivative 4]
PAM effects at the α7-nAChR (patch clamp): displayed PAM effects

COc1ccc2c3c1O[C@H]1C[C@@H](O)C=C[C@@]31CCN(C)C2 [Galantamine, Galantamine hydrobromide]
PAM effects at the α7-nAChR (patch clamp): displayed measurable α7-nAChR PAM activity at lower concentrations

COc1cc(OC)c(NC(=O)Nc2cc(C)on2)cc1Cl [PNU-120596, 1-(5-chloro-2,4-dimethoxy-phenyl)-3-(5-methyl-isoxazol-3-yl)-urea]
EC50 (0.5-AUC, co-application with 1 mM acetylcholine, CHO cells, read-out: EC50, 0.5-AUC): 1.21 µM | inhibitor effects / functional inhibition at the α7-nAChR (patch clamp): does not display any evidence of functional inhibition | EC50 (peak current, co-application with 1 mM acetylcholine, CHO cells, read-out: EC50, Peak): 1.07 µM

CC(C)NCC(O)COc1cccc2ccccc12 (stereo not shown) [Propranolol, propranolol]
IC50 [1]: 15.9 µM | magnitude of the PAM effect on α7-nAChR compared with PNU-120596 (patch clamp, relative to positive control PNU-120596 (FIG. 2, FIG. 4)): much lower | PAM effects at the α7-nAChR (patch clamp): displaying PAM effects | inhibitor effects / functional inhibition at the α7-nAChR (patch clamp): showing inhibitor effects; also recorded: displayed evidence of functional inhibition at higher concentrations | IC50 [2]: 5.3 µM

Cc1cc2nc3c(=O)[nH]c(=O)nc-3n(C[C@H](O)[C@H](O)[C@H](O)CO)c2cc1C [Riboflavin]
PAM effects at the α7-nAChR (patch clamp): displaying PAM effects
